How the values were obtained:
HIV-2 ROD = assay: Anti-HIV-2 ROD activity in MT-4 cells, MTT method; format: cell-based; details: Human immunodeficiency virus 2, MT4, read-out: EC50 ROD
Kunming mice = assay: Acute toxicity test in Kunming mice; format: in vivo; details: Kunming mice
[1] = Acute toxicity test in Kunming mice; format: in vivo; details: Kunming, mouse, in vivo, po
in vivo = details: Sprague-Dawley, rat, iv, 2 mg/kg
[2] = tested on: HIV-1 K103N+Y181C (RES056); assay: microbe, parasite or virus in culture; format: cell-based; details: Human immunodeficiency virus 1, MT4, read-out: EC50 RES056
HIV-1 F227L+V106A = format: cell-based; details: Human immunodeficiency virus 1, MT4, read-out: EC50 F227L+V106A

## Cc1cc(C#N)cc(C)c1Oc1nc(NC2CCN(Cc3ccc(S(N)(=O)=O)cc3)CC2)ncc1-c1cccs1 [Compound 11a, 4-((4-((4-(4-cyano-2,6-dimethylphenoxy)-5-(thiophen-2-yl)pyrimidin-2-yl)amino)piperidin-1-yl)methyl)benzenesulfonamide]
HIV-2 ROD
  EC50: ≥ 33.4 µM

## Cc1cc(C#N)cc(C)c1Oc1nc(NC2CCN(Cc3ccc(S(N)(=O)=O)cc3)CC2)ncc1-c1ccsc1 [Compound 12a, 4-((4-((4-(4-cyano-2,6-dimethylphenoxy)-5-(thiophen-3-yl)pyrimidin-2-yl)amino)piperidin-1-yl)methyl)benzenesulfonamide]
HIV-2 ROD
  EC50: > 6.12 µM

## Cc1cc(C#N)cc(C)c1Oc1nc(NC2CCN(Cc3ccc(S(C)(=O)=O)cc3)CC2)ncc1-c1ccco1 [Compound 13b, 4-((5-(furan-2-yl)-2-((1-(4-(methylsulfonyl)benzyl)piperidin-4-yl)amino)pyrimidin-4-yl)oxy)-3,5-dimethylbenzonitrile]
HIV-2 ROD
  EC50: > 7.46 µM

## Cc1cc(C#N)cc(C)c1Oc1nc(NC2CCN(Cc3ccc(C(N)=O)cc3)CC2)ncc1-c1ccoc1 [Compound 14c, 4-((4-((4-(4-cyano-2,6-dimethylphenoxy)-5-(furan-3-yl)pyrimidin-2-yl)amino)piperidin-1-yl)methyl)benzamide]
HIV-2 ROD
  EC50: > 182 µM

## Cc1cc(C#N)cc(C)c1Oc1nc(NC2CCN(Cc3ccc(C(N)=O)cc3)CC2)ncc1-c1ccncc1 [Compound 16c, 4-((4-((4-(4-cyano-2,6-dimethylphenoxy)-5-(pyridin-4-yl)pyrimidin-2-yl)amino)piperidin-1-yl)methyl)benzamide]
Kunming mice; single oral dose
  acute toxicity, tolerability: well-tolerated up to a dose of 2000 mg/kg with no acute toxicity
Kunming mice; single oral dose 2000 mg/kg
  body weight change: no abnormality of body weight changed
Kunming mice; single oral dose 2000 mg/kg, subsequent two weeks
  toxic symptoms or mortality: did not exhibit any toxic symptoms or mortality
[1]
  LD50 at 2 weeks: > 2000 mg/kg
HIV-2 ROD
  EC50: > 36 µM
In vivo
  Tmax: 1.98 min

## Cc1cc(C#N)cc(C)c1Oc1nc(Nc2ccc(C#N)cc2)nc(N)c1Br [ETR, etravirine]
[2]
  EC50: 0.0522 ± 0.0242 µM
HIV-1 F227L+V106A
  EC50: 0.0269 ± 0.0023 µM

From publication PMC8594587 (Journal of medicinal chemistry, 2021)
